Consider four molecules from US4640916A, “1,4-benzothiazine derivatives, compositions containing them and method of use” (priority 1984, dated 1987).

Structures are written as SMILES.

For data set [1] the following is noted: in vivo; cited from earlier work.
The conditions of data set [2]: cited from earlier work.
The subject of data set [3] is contraction depending on intracellular Ca^++. The experiment in a line: Intracellular Ca++ antagonism: inhibition of phenylephrine contraction of aorta strip in Ca++-free EGTA solution. The class given is cell-based, rabbit. As to conditions: Oryctolagus cuniculus; compound 10^-4 M; phenylephrine 10^-6 M; Ca++ 0 mM, EGTA 5 mM; read-out: Inhibitory percent (contraction depending on intracellular Ca++). The protocol:
A spiral strip of aorta of a rabbit (2-3 mm width, about 3 cm length) was allowed to equilibrate by hanging under 2 g force in a Krebs-Henseleit solution. The solution was saturated with a mixture gas 97% O2 --3% CO2, which was warmed to 37° C. The strip was moved into another Krebs-Henseleit solution containing Ca^++ OmM and EGTA 5 mM. Five minutes later, phenylephrine (10^-6 M) was added on the solution. The resulting contraction of the strip was made as the index of the contraction depending on intracellular Ca^++.

For another data set, the system named is intracellular Ca^++. As to conditions: (2) Ca++ from intracellular store site; (3) Ca++ through receptor-dependent channel; cited from earlier work.

Turning to `COc1cc2nc(N3CCN(C(=O)c4ccco4)CC3)nc(N)c2cc1OC` [prazosin], in data set [1], the “Side effects of known drugs (in words)” value is “orthostatic hypotension often observed”.
As to `CCN(CC)CCCCCCCCOC(=O)c1cc(OC)c(OC)c(OC)c1` [TMB-8], the “Antihypertensive action in vivo (in words)” value in data set [2] is on record as “do not display antihypertensive action in vivo”. Besides, the inhibition at 100 µM in data set [3] is 58%. Moreover, the “Action on intracellular Ca++ (in words)” value in the data set on intracellular Ca^++ is listed as “weak in their action”.
Consider `CN1CCN(CCCN2c3ccccc3Sc3ccc(C(F)(F)F)cc32)CC1` [trifluoperazine], for which the “Side effects of known drugs (in words)” value in data set [1] is reported as “side effects e.g. on the central nervous system”. The “Action on intracellular Ca++ (in words)” value in the data set with intracellular Ca^++ is on record as “showing antagonism against intracellular Ca^++”.
For the molecule `NCCCCCCNS(=O)(=O)c1cccc2c(Cl)cccc12` [Example W-7], the “Action on intracellular Ca++ (in words)” value with intracellular Ca^++ is on record as “weak in their action”.
